The supplement of paper PMC10307832

Tests used:
Experiment in all cases: relative viability (nuclei count vs DMSO), 5 days (fraction); higher = more cells survive
[1] = compound: C[As](C)SC[C@H](NC(=O)CC[C@H](N)C(=O)O)C(=O)NCC(=O)O [Darinaparsin] + CS(=O)(=O)N1CCN(Cc2cc3nc(-c4cccc5[nH]ncc45)nc(N4CCOCC4)c3s2)CC1 [Pictilisib] (partner 1 µM)
Outline: (§1)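 Relative viability was taken as the ratio of nuclei in treated wells to nuclei in vehicle wells. Lung cancer cell lines in 1536-well plates received compounds by pin tool one day after seeding, either one drug alone or a fixed anchor-drug dose plus five library-drug doses (not always all listed) in √10 steps. Nuclei were counted on 4× images after 5 days of treatment, and values are medians of duplicate plates.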

[2] = compound: CC1=C(C=C(C=C1)NC(=O)C2=CC(=CC=C2)C(C)(C)C#N)NC3=CC4=C(C=C3)N=CN(C4=O)C [AZ628] + COc1cccc2cc(-c3nc([C@H]4CC[C@H](C(=O)O)CC4)n4ncnc(N)c34)[nH]c12 [OSI-027] (partner 0.5 µM)
Outline: as §1

[3] = compound: C[As](C)SC[C@H](NC(=O)CC[C@H](N)C(=O)O)C(=O)NCC(=O)O [Darinaparsin] + O=C(CCCCCCC(=O)Nc1ccccc1)NO [Vorinostat] (partner 1 µM)
Outline: as §1

[4] = compound: C1CC2=C(C1)C=C(C=C2)OC3=NC(=C4C(=N3)N(C=N4)CC5=CC=C(C=C5)C6=CC=CC=C6)N[C@@H](CC7=CC=CC=C7)CO [QS11] + Cc1cc(Nc2cc(N3CCN(C)CC3)nc(Sc3ccc(NC(=O)C4CC4)cc3)n2)n[nH]1 [Tozasertib] (partner 0.1 µM)
Outline: as §1

Row | Cell Line | relative viability ([1]; first compound 0.08 µM) | relative viability ([1]; first compound 0.8 µM) | relative viability ([1]; first compound 2.53 µM) | relative viability ([1]; first compound 8 µM) | relative viability ([2]; first compound 0.08 µM) | relative viability ([2]; first compound 0.253 µM) | relative viability ([2]; first compound 0.8 µM) | relative viability ([2]; first compound 2.53 µM) | relative viability ([2]; first compound 8 µM) | relative viability ([3]; first compound 0.08 µM) | relative viability ([3]; first compound 0.8 µM) | relative viability ([3]; first compound 2.53 µM) | relative viability ([3]; first compound 8 µM) | relative viability ([4]; first compound 0.08 µM) | relative viability ([4]; first compound 0.253 µM) | relative viability ([4]; first compound 0.8 µM) | relative viability ([4]; first compound 2.53 µM) | relative viability ([4]; first compound 8 µM)
1 | NCI-H1755 | 0.461 | 0.398 | 0.355 | 0.38 | 0.683 | 0.74 | 0.781 | 0.636 | 0.575 | 0.791 | 0.606 | 0.817 | 1.05 | 0.617 | 0.555 | 0.454 | 0.515 | 0.411
2 | NCI-H1793 | 0.25 | 0.31 | 0.355 | 0.299 | 0.355 | 0.226 | 0.252 | 0.247 | 0.193 | 0.653 | 0.731 |  | 0.911 | 0.305 | 0.328 | 0.257 | 0.32 | 0.338
3 | NCI-H1915 | 0.99 | 0.902 | 0.955 | 0.991 | 0.447 | 0.476 | 0.428 | 0.355 | 0.243 | 0.502 | 0.468 | 0.485 | 0.579 | 0.472 | 0.494 |  | 0.432 | 0.374
4 | NCI-H1944 | 0.359 | 0.307 | 0.348 | 0.374 | 0.439 | 0.335 | 0.331 | 0.319 | 0.301 | 0.595 | 0.542 | 0.61 | 0.682 | 0.258 | 0.274 |  | 0.271 | 0.24
5 | NCI-H1975 | 0.289 | 0.299 | 0.289 | 0.28 | 0.726 | 0.619 | 0.483 | 0.503 | 0.373 | 0.875 | 0.728 | 0.741 | 0.854 | 0.823 | 1.01 | 0.585 | 0.408 | 0.225
6 | NCI-H1993 | 0.885 | 0.783 | 0.695 | 0.848 | 0.541 | 0.578 | 0.53 | 0.594 | 0.577 | 0.765 | 0.855 | 0.697 | 0.827 | 0.563 | 0.573 | 0.605 | 0.669 | 0.616
7 | NCI-H2009 | 0.94 | 0.759 | 0.815 | 0.711 | 0.537 | 0.452 | 0.287 | 0.327 | 0.243 | 0.866 | 0.717 | 0.645 | 0.72 | 0.756 | 0.789 | 0.595 | 0.58 | 0.434
8 | NCI-H2023 | 0.284 | 0.193 | 0.217 | 0.262 | 0.369 | 0.374 | 0.329 | 0.309 | 0.234 | 0.662 | 0.554 | 0.707 | 0.666 | 0.381 | 0.38 | 0.276 | 0.222 | 0.219
9 | NCI-H2085 | 0.553 | 0.419 | 0.455 | 0.44 | 0.913 | 0.754 | 0.803 | 0.667 | 0.332 | 0.73 | 0.732 | 0.827 | 0.764 | 0.803 | 0.77 | 0.479 | 0.531 | 0.467
10 | NCI-H2087 | 1.06 | 0.881 | 0.652 | 0.997 | 0.52 | 0.335 | 0.213 | 0.274 | 0.13 | 0.932 | 0.839 | 0.892 | 1.14 | 0.245 | 0.225 |  | 0.243 | 0.265
11 | NCI-H2126 | 0.506 | 0.499 | 0.474 | 0.533 | 0.793 | 0.655 | 0.651 | 0.728 | 0.594 | 0.77 | 0.687 | 0.743 | 0.708 | 0.803 | 0.849 | 0.817 | 0.886 | 0.795
12 | NCI-H2170 | 0.305 | 0.279 | 0.316 | 0.297 | 0.836 | 0.676 | 0.717 | 0.749 | 0.578 | 0.967 | 0.694 | 0.676 | 1.17 | 0.803 | 0.662 | 0.671 | 0.742 | 0.721
13 | NCI-H2228 | 0.401 | 0.344 | 0.473 | 0.544 | 0.627 | 0.521 | 0.519 | 0.623 | 0.281 | 0.771 | 0.839 | 0.388 | 0.672 | 0.195 | 0.241 | 0.309 | 0.296 | 0.289
14 | NCI-H2347 | 0.708 | 0.636 | 0.694 | 0.783 | 0.337 | 0.377 | 0.396 | 0.339 | 0.254 | 0.477 | 0.541 | 0.679 | 0.718 | 0.434 | 0.523 | 0.51 | 0.436 | 0.572
15 | NCI-H2405 | 0.5 | 0.443 | 0.422 | 0.537 | 0.482 | 0.37 | 0.393 | 0.353 | 0.345 | 1.07 | 1.02 | 0.924 | 1.12 | 0.752 | 0.699 | 0.725 | 0.758 | 0.899
